Assay results: ChEMBL document CHEMBL1150858, “Two new cytotoxic and virucidal trisulfated triterpene glycosides from the Antarctic sea cucumber Staurocucumis liouvillei” (J Nat Prod, 2001)

Assays:
Vero [1] = assay: Cytotoxicity against african green monkey Vero cells at 6.25 to 50 ug/mL within 8 hrs by MTT assay; type: cell-based; settings: chlorocebus sabaeus
Vero [2] = assay: Cytotoxicity against african green monkey Vero cells at 6.25 to 50 ug/mL measured after prolonged incubation by MTT assay; type: cell-based; settings: chlorocebus sabaeus
Human alphaherpesvirus 1 = assay: Antiviral activity against HSV1 KOS in african green monkey Vero cells assessed as residual infectivity at 10 ug/mL by plaque formation assay; type: functional

| SMILES | Activity (Vero [1]) | Activity (Vero [2]) | Activity (Human alphaherpesvirus 1) [%] |
| --- | --- | --- | --- |
| CO[C@@H]1[C@@H](O)[C@H](O[C@@H]2[C@@H](O)[C@H](O[C@H]3[C@H](O)[C@@H](O)[C@H](O[C@H]4[C@H](O[C@H]5CC[C@]6(C)[C@H]7CC[C@]89C(=O)O[C@@](C)(CCC=C(C)C)[C@H]8[C@@H](OC(C)=O)C[C@@]9(C)C7=CC[C@H]6C5(C)C)OC[C@@H](OS(=O)(=O)[O-])[C@@H]4O)O[C@@H]3C)O[C@H](COS(=O)(=O)[O-])[C@H]2O)O[C@H](COS(=O)(=O)[O-])[C@H]1O.[Na+].[Na+].[Na+] [LIOUVILLOSIDE A] | Non-toxic | Toxic | 24 |
| CO[C@@H]1[C@@H](O)[C@H](O[C@@H]2[C@@H](O)[C@H](O[C@H]3[C@H](O)[C@@H](O)[C@H](O[C@H]4[C@H](O[C@H]5CC[C@]6(C)[C@H]7CC[C@]89C(=O)O[C@@](C)(CCCC(C)C)[C@H]8[C@@H](OC(C)=O)C[C@@]9(C)C7=CC[C@H]6C5(C)C)OC[C@@H](OS(=O)(=O)[O-])[C@@H]4O)O[C@@H]3C)O[C@H](COS(=O)(=O)[O-])[C@H]2O)O[C@H](COS(=O)(=O)[O-])[C@H]1O.[Na+].[Na+].[Na+] [LIOUVILLOSIDE B] | Non-toxic | Toxic | 2.5 |
